From US20130281409A1, “Myelin Sheath Fatty Acids that Resolve Neuroinflammation” (priority 2012, published 2013)
“Also recorded” adds a separate entry of the source.

What was measured:
Assay type in all cases: cell-based, mouse
[1] = test system: splenocytes from PLP139-151-immunized SJL mice; experiment: PLP139-151-induced cytokine production by splenocytes of PLP139-151-immunized mice; conditions: 30 μg/ml lipid, 48 hours
Method: PLP-stimulated cells from PLP139-151-immunized mice administered PGPC prophylactically: SJL/J mice were co-injected with PGPC and PLP139-151 in CFA and sacrificed 48 days later. Lymph node cells and splenocytes were then harvested and re-stimulated in vitro (2.5×10^6 cells/ml) with 10 μg/ml of PLP139-151 or with media alone. PLP-stimulated cells from untreated PLP139-151-immunized mice: SJL/J mice were immunized with PLP139-151 in CFA and sacrificed 10 days later. Splenocytes were then harvested and re-stimulated in vitro (at 5×10^5 cells/ml) with 10 μg/ml of PLP139-151 in the presence of 30 μg/ml of POPS, PGPC, azPC ester, or azPC. Cytokine production by cells from the lymph nodes and spleens of PGPC co-immunized mice was measured after 66 hours of stimulation by using the BD OptEIA™ Mouse IFN-γ ELISA kit (BD Biosciences). Cytokine assays for the anti-CD3/anti-CD28 antibody-stimulated T cells and PLP139-151-stimulated splenocytes were performed on culture supernatants after 48 hours of stimulation using the BD OptEIA™ Mouse IL-6, IFN-γ, and TNF alpha ELISA kits (BD Biosciences) and the Mouse IL-17 DuoSet ELISA Development kit (R&D Systems).

[2] = test system: NF-κB and ERK pathways, Bcl-2 family proteins; experiment: Immunoblot of inflammatory, survival and apoptotic signaling in anti-CD3/anti-CD28-stimulated T cells; conditions: 30 μg/ml lipid, 15 min or 24 h
Method: CD3^+ T cells were isolated from the lymph nodes of naïve C57BL/6 mice by using CD3^+ T-cell enrichment columns (R&D systems). […] Cells were washed with ice-cold PBS and lysed in RIPA lysis buffer containing 1X Halt protease and phosphatase inhibitor cocktail (Pierce) with a Dounce homogenizer. Immunoblotting was performed with antibodies against phospho-Bim ([…]), phospho-Bad ([…]), phospho-Bcl-2 ([…]), phospho-IKKα/β (serines 180/181), phospho-p65 ([…]), phospho-ERK1/2 […]), and IκBα from Cell Signaling Technology.

CD3+ T cells = experiment: Proliferation of anti-CD3/anti-CD28-stimulated purified T cells; conditions: anti-CD3 or anti-CD3 and anti-CD28, 30 μg/ml lipid, 48 hours
Method: Splenocytes were harvested from mice transgenic for the MBPAc1-11-specific T-cell receptor and stimulated with 2 μg/ml of MBPAc1-11 in the presence of 30 μg/ml of lipid. Lymph nodes and spleens were also harvested from naive C57BL/6 mice, and CD3^+ T-cell enrichment columns (R&D systems) were used to isolate CD3^+ T cells. […] Cytokine assays were performed on culture supernatants after 24 (IL-12p40) or 48 hours (IFN-γ, IL-6, and TNF) of culture by using the BD OptEIA™ Mouse ELISA kits (BD Biosciences). Cd1d^−/− T cells: We harvested splenocytes from Cd1d^−/− mice and their wild-type littermates and used CD3^+ T-cell enrichment columns (R&D systems) to isolate T cells. […] Anti-CD3/anti-CD28-stimulated purified T cells: We harvested lymph nodes and spleens from naive C57BL/6 mice and used CD3^+ T-cell enrichment columns (R&D systems) to isolate CD3^+ T cells.

RAW 264.7 cells [3] = experiment: Apoptosis of LPS-stimulated RAW 264.7 macrophage cells; conditions: 30 μg/ml lipid, 100 ng/ml LPS, 48 hours
Method: LPS-stimulated RAW 264.7 mouse macrophage cells: 1×10^5 cells/ml of RAW 264.7 cells were stimulated with 100 ng/ml of lipopolysaccharide (LPS) in the presence of 30 μg/ml of POPS, PGPC, azPC ester, or azPC. Cells were stained according to standard protocols, run on a FACScan flow cytometer (BD Biosciences), and analysed with CellQuest software (BD Immunocytometry Systems) or with FlowJo software version 6.3.2 (Tree Star, Inc.).

[4] = test system: splenocytes from PLP139-151-immunized SJL mice; experiment: PLP139-151-induced proliferation of splenocytes of PLP139-151-immunized mice; conditions: 30 μg/ml lipid, 48 hours
Method: PLP-stimulated cells from PLP139-151-immunized mice administered PGPC prophylactically: SJL/J mice were co-injected with PGPC and PLP139-151 in CFA and sacrificed 48 days later. Lymph node cells and splenocytes were then harvested and re-stimulated in vitro (2.5×10^6 cells/ml) with 10 μg/ml of PLP139-151 or with media alone. PLP-stimulated cells from untreated PLP139-151-immunized mice: SJL/J mice were immunized with PLP139-151 in CFA and sacrificed 10 days later. Splenocytes were then harvested and re-stimulated in vitro (at 5×10^5 cells/ml) with 10 μg/ml of PLP139-151 in the presence of 30 μg/ml of POPS, PGPC, azPC ester, or azPC.

RAW 264.7 cells [5] = experiment: Proliferation of LPS-stimulated RAW 264.7 macrophage cells; conditions: 30 μg/ml lipid, 100 ng/ml LPS, 48 hours
Method: LPS-stimulated RAW 264.7 mouse macrophage cells: 1×10^5 cells/ml of RAW 264.7 cells were stimulated with 100 ng/ml of lipopolysaccharide (LPS) in the presence of 30 μg/ml of POPS, PGPC, azPC ester, or azPC.

[6] = test system: naive MBPAc1-11-TCR transgenic splenocytes; experiment: MBPAc1-11-induced cytokine production by MBPAc1-11-TCR transgenic splenocytes; conditions: 30 μg/ml lipid; for MBPAc1-11-induced IFN-γ production / MBPAc1-11-induced IL-6 production / MBPAc1-11-induced TNF production: 2 μg/ml MBPAc1-11, 48 hours
Method: Splenocytes were harvested from mice transgenic for the MBPAc1-11-specific T-cell receptor and stimulated with 2 μg/ml of MBPAc1-11 in the presence of 30 μg/ml of lipid. Lymph nodes and spleens were also harvested from naive C57BL/6 mice, and CD3^+ T-cell enrichment columns (R&D systems) were used to isolate CD3^+ T cells. […] Cytokine assays were performed on culture supernatants after 24 (IL-12p40) or 48 hours (IFN-γ, IL-6, and TNF) of culture by using the BD OptEIA™ Mouse ELISA kits (BD Biosciences).

Q: For `CCCCCCCCCCCCCCCC(=O)OC[C@H](COP(=O)([O-])OCC[N+](C)(C)C)OC(=O)CCCC(=O)O` [PGPC, 1-Palmitoyl-2-Glutaroyl-sn-Glycero-3-Phosphocholine], which “PLP139-151-induced cytokine production (IL-17, IL-6, IFN-γ, TNF)” value (from here on “PLP139-151-induced cytokine production”) [1] is on record?
A: suppress

Q: And the “CD3/CD28-induced activation of the NF-κB and ERK pathways” value (shortened to “CD3/CD28-induced activation”) [2]?
A: suppressed the CD3/CD28-induced activation

Q: What about the “CD3/CD28-induced phosphorylation of Bim (serine 69) and Bad (serine 112)” value (“CD3/CD28-induced phosphorylation of Bim” for short) [2] of the same molecule?
A: suppressed the CD3/CD28-induced phosphorylation

Q: What about the “T-cell proliferation, wild-type and Cd1d−/− T cells” value (from here on “T-cell proliferation”) (CD3+ T cells) of the same molecule?
A: suppress T-cell proliferation independently of CD1d

Q: And the “apoptosis of LPS-activated RAW 264.7 cells” value (shortened to “apoptosis”) (RAW 264.7 cells [3])?
A: induce apoptosis

Q: What about the “PLP139-151-induced proliferation of splenocytes” value (“PLP139-151-induced proliferation” for short) [4] of the same molecule?
A: suppress

Q: What about the “proliferation of LPS-activated RAW 264.7 cells” value (RAW 264.7 cells [5]) of the same molecule?
A: suppress proliferation

Q: And the “MBPAc1-11-induced cytokine levels (cytokines not specified)” value ([6]; effects less dramatic than POPS and azPC)?
A: reduced levels of some of the cytokines

Q: With `CCCCCCCC/C=C\CCCCCCCC(=O)O[C@H](COC(=O)CCCCCCCCCCCCCCC)COP(=O)(O)OC[C@H](N)C(=O)O` [POPS, 1-Palmitoyl-2-Oleoyl-sn-Glycero-3-[Phospho-L-Serine]] as the molecule, how does the “PLP139-151-induced cytokine production” value [1] read?
A: suppress

Q: And the “CD3/CD28-induced activation” value [2]?
A: suppressed the CD3/CD28-induced activation

Q: And the “CD3/CD28-induced phosphorylation of Bim” value [2]?
A: suppressed the CD3/CD28-induced phosphorylation

Q: What about the “T-cell proliferation” value (CD3+ T cells) of the same molecule?
A: suppress T-cell proliferation independently of CD1d

Q: What about the “apoptosis” value (RAW 264.7 cells [3]) of the same molecule?
A: induce apoptosis

Q: What about the “PLP139-151-induced proliferation” value [4] of the same molecule?
A: suppress

Q: What about the “proliferation of LPS-activated RAW 264.7 cells” value (RAW 264.7 cells [5]) of the same molecule?
A: suppress proliferation

Q: And the IL-12p40 production ([6]; 2 μg/ml MBPAc1-11, 24 hours)?
A: Neither POPS nor the oxidized phosphatidylcholine derivatives affected production

Q: And the “MBPAc1-11-induced IFN-γ production” value [6]?
A: did not significantly reduce

Q: What about the “MBPAc1-11-induced IL-6 production” value [6] of the same molecule?
A: reduced

Q: And the “MBPAc1-11-induced TNF production” value [6]?
A: reduced

Q: `CCCCCCCCCCCCCCCC(=O)OC[C@H](COP(=O)([O-])OCC[N+](C)(C)C)OC(=O)CCCCCCCC(=O)O` [azPC, 1-Palmitoyl-2-Azelaoyl-sn-Glycero-3-Phosphocholine] was tested. Which “PLP139-151-induced cytokine production” value [1] did it give?
A: suppress

Q: And the “CD3/CD28-induced activation” value [2]?
A: suppressed the CD3/CD28-induced activation

Q: And the “CD3/CD28-induced phosphorylation of Bim” value [2]?
A: suppressed the CD3/CD28-induced phosphorylation

Q: And the “T-cell proliferation” value (CD3+ T cells)?
A: suppress T-cell proliferation independently of CD1d

Q: And the “apoptosis” value (RAW 264.7 cells [3])?
A: increased apoptosis; also recorded: induce apoptosis

Q: What about the “PLP139-151-induced proliferation” value [4] of the same molecule?
A: suppress

Q: And the “proliferation of LPS-activated RAW 264.7 cells” value (RAW 264.7 cells [5])?
A: suppressed proliferation; also recorded: suppress proliferation

Q: What about the “MBPAc1-11-induced IFN-γ production” value [6] of the same molecule?
A: reduced

Q: And the “MBPAc1-11-induced IL-6 production” value [6]?
A: reduced

Q: What about the “MBPAc1-11-induced TNF production” value [6] of the same molecule?
A: reduced
